Reference: patent US20260125359A1, “HETEROARYL COMPOUNDS AS MULTI-TARGET PROTEIN KINASE INHIBITORS” (FUJIAN HAIXI PHARMACEUTICALS CO., LTD., priority 2023, published 2026)

The molecules below were run on M-NFS-60 cells (assay: M-NFS-60 cell in vitro assay (CCK, 48 h, M-CSF factor medium)). Settings: M-NFS-60 cells; read-out: M-NFS-60cellassay IC50.
Assay type: cell-based
How it was run: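 Mouse M-NFS-60 cells (2000/well) in RPMI-1640 with 10% serum and M-CSF (25 ng/ml) were pre-incubated 4 h, then exposed to DMSO-diluted compound gradients for 48 h at 5% CO2. Viability read by CCK, 2 h, OD 450 nm; IC50 from curve fitting.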

SMILES | IC50 [nM]
COc1cc(C(=O)Nc2cccc3c2C(=O)CC3Nc2cncc(-c3cnn(C)c3)c2)ccc1F (centres unmarked) [Compound 69, 4-fluoro-3-methoxy-N-(1-((5-(1-methyl-1H-pyrazol-4-yl)pyridin-3-yl)amino)-3-oxo-2,3-dihydro-1H-inden-4-yl)benzamide] | > 500
Cn1cc(-c2cncc(NC3CC(=O)c4c(NC(=O)c5ccc(C(F)(F)F)cc5)cccc43)c2)cn1 (centres unmarked) [Compound 70, N-(1-((5-(1-methyl-1H-pyrazol-4-yl)pyridin-3-yl)amino)-3-oxo-2,3-dihydro-1H-inden-4-yl)-4-(trifluoromethyl)benzamide] | > 500
Cn1cc(-c2cncc(NC3CC(F)c4c(NC(=O)c5ccc(C(F)(F)F)cc5)cccc43)c2)cn1 (centres unmarked) [Compound 71, N-(3-fluoro-1-((5-(1-methyl-1H-pyrazol-4-yl)pyridin-3-yl)amino)-2,3-dihydro-1H-inden-4-yl)-4-(trifluoromethyl)benzamide] | 200 to 500
Cn1cc(-c2cncc(NC3CC(O)c4c(NC(=O)c5ccc(C(F)(F)F)cc5)cccc43)c2)cn1 (centres unmarked) [Compound 71a, N-(3-hydroxy-1-((5-(1-methyl-1H-pyrazol-4-yl)pyridin-3-yl)amino)-2,3-dihydro-1H-inden-4-yl)-4-(trifluoromethyl)benzamide] | 50 to 200
Cc1ncc(-c2cnn(C)c2)cc1O[C@H]1CCc2c(NC(=O)c3ccc(C(F)(F)F)cc3)cccc21 [Compound 72, (S)—N-(1-((2-methyl-5-(1-methyl-1H-pyrazol-4-yl)pyridin-3-yl)oxy)-2,3-dihydro-1H-inden-4-yl)-4-(trifluoromethyl)benzamide] | > 500
Cn1cc2ncc(N[C@H]3CCc4c(C(=O)Nc5cccc(C6CC6)c5)cccc43)cc2n1 [Compound 74a] | < 50
Cn1ncc2ccc(N[C@H]3CCc4c(C(=O)Nc5cccc(C6CC6)c5)cccc43)cc21 [Compound 74b] | > 500
Cn1cc2cc(N[C@H]3CCc4c(C(=O)Nc5cccc(C6CC6)c5)cccc43)cnc2n1 [Compound 74c] | 50 to 200
Cn1cc2cc(N[C@H]3CCc4c(C(=O)Nc5cccc(C6CC6)c5)cccc43)ccc2n1 [Compound 74d] | > 500
Cn1ccc2ncc(N[C@H]3CCc4c(C(=O)Nc5cccc(C6CC6)c5)cccc43)cc21 [Compound 74e] | < 50
Cc1cc2ncc(N[C@H]3CCc4c(C(=O)Nc5cccc(C6CC6)c5)cccc43)cn2n1 [Compound 74f] | < 50
O=C(Nc1cccc(C2CC2)c1)c1cccc2c1CC[C@@H]2Nc1cnc2ccnn2c1 [Compound 74g] | < 50
Cc1cccc(NC(=O)c2cccc3c2CC[C@@H]3Nc2cnc3cn(C)nc3c2)c1F [Compound 74i] | < 50
Cc1cccc(NC(=O)c2cccc3c2CC[C@@H]3Oc2cnc3cnn(C)c3c2)c1F [Compound 75, (S)—N-(2-fluoro-3-methylphenyl)-1-((1-methyl-1H-pyrazolo[4,3-b]pyridin-6-yl)oxy)-2,3-dihydro-1H-indene-4-carboxamide] | < 50
CN(C)Cc1ccc(NC(=O)c2cccc3c2CC[C@@H]3Oc2cnc3cnn(C)c3c2)cc1 [Compound 76aa] | 50 to 200
Cn1ncc2ncc(O[C@H]3CCc4c(C(=O)Nc5cccc(C6CC6)c5)cccc43)cc21 [Compound 76ab] | < 50
COc1cc(NC(=O)c2cccc3c2CC[C@@H]3Oc2cnc3cnn(C)c3c2)ccc1F [Compound 76ad] | < 50
Cn1ncc2ncc(O[C@H]3CCc4c(C(=O)Nc5ccc6c(c5)OC(F)(F)O6)cccc43)cc21 [Compound 76ae] | < 50
Cn1cc2ncc(O[C@H]3CCc4c(C(=O)Nc5cccc(C6CC6)c5)cccc43)cc2n1 [Compound 76af] | < 50
COc1ccc(F)c(NC(=O)c2cccc3c2CC[C@@H]3Oc2cnc3cnn(C)c3c2)c1 [Compound 76ag] | 50 to 200
Cc1ccc(F)c(NC(=O)c2cccc3c2CC[C@@H]3Oc2cnc3cnn(C)c3c2)c1 [Compound 76ah] | < 50

SMILES | IC50 [nM]
Cc1cccc(NC(=O)c2cccc3c2CC[C@@H]3Oc2cnc3cn(C)nc3c2)c1F [Compound 76aj] | < 50
COc1cccc(NC(=O)c2cccc3c2CC[C@@H]3Oc2cnc3cnn(C)c3c2)c1F [Compound 76ak] | 50 to 200
Cc1cc(NC(=O)c2cccc3c2CC[C@@H]3Oc2cnc3cnn(C)c3c2)ccc1F [Compound 76am] | < 50
Cn1ncc2ncc(O[C@H]3CCc4c(C(=O)Nc5ccc(F)c(Cl)c5)cccc43)cc21 [Compound 76an] | < 50
Cn1ncc2ncc(O[C@H]3CCc4c(C(=O)Nc5nn(C)c6ccccc56)cccc43)cc21 [Compound 76ao] | < 50
CN(C)CCOc1cccc(NC(=O)c2cccc3c2CC[C@@H]3Oc2cnc3cnn(C)c3c2)c1 [Compound 76ap] | 50 to 200
COc1cc(NC(=O)c2cccc3c2CC[C@@H]3Oc2cnc3cn(C)nc3c2)ccc1F [Compound 76aq] | < 50
Cc1cc(NC(=O)c2cccc3c2CC[C@@H]3Oc2cnc3cn(C)nc3c2)ccc1F [Compound 76ar] | < 50
Cn1cc2ncc(O[C@H]3CCc4c(C(=O)Nc5ccc(F)c(Cl)c5)cccc43)cc2n1 [Compound 76as] | < 50
Cn1ncc2ncc(O[C@H]3CCc4c(C(=O)Nc5cncc(C6CC6)c5)cccc43)cc21 [Compound 76at] | < 50
Cn1cc2ncc(O[C@H]3CCc4c(C(=O)Nc5ccccc5F)cccc43)cc2n1 [Compound 76au] | < 50
Cn1cc2ncc(O[C@H]3CCc4c(C(=O)Nc5cccc(C(F)(F)F)c5F)cccc43)cc2n1 [Compound 76av] | < 50
Cc1ccc(F)c(NC(=O)c2cccc3c2CC[C@@H]3Oc2cnc3cn(C)nc3c2)c1 [Compound 76ax] | < 50
COc1ccc(F)c(NC(=O)c2cccc3c2CC[C@@H]3Oc2cnc3cn(C)nc3c2)c1 [Compound 76ay] | < 50
COc1cccc(NC(=O)c2cccc3c2CC[C@@H]3Oc2cnc3cn(C)nc3c2)c1F [Compound 76az] | < 50
Cc1cncc(NC(=O)c2cccc3c2CC[C@@H]3Oc2cnc3cn(C)nc3c2)c1 [Compound 76ba] | < 50
Cn1cc2ncc(O[C@H]3CCc4c(C(=O)Nc5cccc(C6CC6)c5F)cccc43)cc2n1 [Compound 76bb] | < 50
Cn1ncc2ncc(O[C@H]3CCc4c(C(=O)Nc5cccc(C6CC6)c5F)cccc43)cc21 [Compound 76bc] | < 50
COc1c(Cl)cccc1NC(=O)c1cccc2c1CC[C@@H]2Oc1cnc2cn(C)nc2c1 [Compound 76be] | 50 to 200
Cn1ncc2ncc(O[C@H]3CCc4c(NC(=O)c5cccc(C6CC6)c5)cccc43)cc21 [Compound 77, (S)-3-cyclopropyl-N-(1-((1-methyl-1H-pyrazolo[4,3-b]pyridin-6-yl)oxy)-2,3-dihydro-1H-inden-4-yl)benzamide] | 50 to 200
Cn1ncc2ncc(O[C@H]3CCc4c(NC(=O)c5cccc(C6CC6)c5)ccc(F)c43)cc21 [Compound 78a] | < 50

SMILES | IC50 [nM]
Cc1ccc(NC(=O)c2cccc(C3CC3)c2)c2c1[C@@H](Oc1cnc3cnn(C)c3c1)CC2 [Compound 78b] | > 500
Cc1cccc(NC(=O)c2cccc3c2CC[C@@H]3N(C)c2cnc3cnn(C)c3c2)c1F [Compound 79, (S)—N-(2-fluoro-3-methylphenyl)-1-(methyl (1-methyl-1H-pyrazolo[4,3-b]pyridin-6-yl)amino)-2,3-dihydro-1H-indene-4-carboxamide] | < 50
CN(c1cnc2cnn(C)c2c1)[C@H]1CCc2c(C(=O)Nc3cccc(C4CC4)c3)cccc21 [Compound 80a] | < 50
CN(c1cnc2cn(C)nc2c1)[C@H]1CCc2c(C(=O)Nc3cccc(C4CC4)c3)cccc21 [Compound 80b] | < 50
CN(C)Cc1ccc(NC(=O)c2cccc3c2CC[C@@H]3N(C)c2cnc3cnn(C)c3c2)cc1F [Compound 80c] | 50 to 200
COc1cc(NC(=O)c2cccc3c2CC[C@@H]3N(C)c2cnc3cnn(C)c3c2)ccc1F [Compound 80d] | < 50
CN(c1cnc2cnn(C)c2c1)[C@H]1CCc2c(C(=O)Nc3cncc(Cl)c3)cccc21 [Compound 80e, (S)—N-(5-chloropyridin-3-yl)-1-(methyl (1-methyl-1H-pyrazolo[4,3-b]pyridin-6-yl)amino)-2,3-dihydro-1H-indene-4-carboxamide] | < 50
CN(C)Cc1cc(NC(=O)c2cccc3c2CC[C@@H]3N(C)c2cnc3cnn(C)c3c2)ccc1F [Compound 80f] | 50 to 200
CN(C)Cc1ccc(NC(=O)c2cccc3c2CC[C@@H]3N(C)c2cnc3cnn(C)c3c2)cc1 [Compound 80g] | 200 to 500
CN(c1cnc2cnn(C)c2c1)[C@H]1CCc2c(C(=O)Nc3nn(C)c4ccccc34)cccc21 [Compound 80h] | < 50
CN(c1cnc2cnn(C)c2c1)[C@H]1CCc2c(C(=O)Nc3ccc4c(c3)OC(F)(F)O4)cccc21 [Compound 80i] | 50 to 200
Cc1cccc(NC(=O)c2cccc3c2CC[C@@H]3N(C)c2cnc3cn(C)nc3c2)c1F [Compound 80j] | < 50
COc1cccc(NC(=O)c2cccc3c2CC[C@@H]3N(C)c2cnc3cn(C)nc3c2)c1F [Compound 80m] | < 50
Cc1ccc(F)c(NC(=O)c2cccc3c2CC[C@@H]3N(C)c2cnc3cn(C)nc3c2)c1 [Compound 80n] | < 50
CN1CCc2nc(NC(=O)c3cccc4c3CC[C@@H]4N(C)c3cnc4cn(C)nc4c3)sc2C1 [Compound 80o] | < 50
COc1ccc(F)c(NC(=O)c2cccc3c2CC[C@@H]3N(C)c2cnc3cn(C)nc3c2)c1 [Compound 80p] | < 50
Cc1cc(NC(=O)c2cccc3c2CC[C@@H]3N(C)c2cnc3cnn(C)c3c2)ccc1F [Compound 80q] | < 50
CN(c1cnc2cnn(C)c2c1)[C@H]1CCc2c(C(=O)Nc3ccc(F)c(Cl)c3)cccc21 [Compound 80r] | < 50
Cc1cc(NC(=O)c2cccc3c2CC[C@@H]3N(C)c2cnc3cn(C)nc3c2)ccc1F [Compound 80s] | < 50
CN(c1cnc2cn(C)nc2c1)[C@H]1CCc2c(C(=O)Nc3ccc(F)c(Cl)c3)cccc21 [Compound 80t] | < 50
